Test results as given in US12221646B2, “Method for the rapid determination of susceptibility or resistance of bacteria to antibiotics” (ABM TECHNOLOGIES, LLC, priority 2013, dated 2025).
Like-named read-outs stand apart in the source and are kept apart here.

Tests used:
Format in all cases: cell-based
Acinetobacter baumannii [1] = experiment: MIC of ceftazidime by E-test in A. baumannii strains; conditions: read-out: MIC determined by E-test
Acinetobacter baumannii [2] = experiment: Cell enlargement after one hour incubation with antibiotic (microgel, SYBR Gold, fluorescence microscopy), A. baumannii
Method: Each dose was correlated to susceptibility breakpoints established in Example 1. The incubated samples were then assessed under microscopy for enlargement. The criterion of enlargement/non-enlargement was determined by a comparison to a control dose of 0 μg/ml. […] Using the criterion of enlargement/non-enlargement and the correlated breakpoint concentrations, each of the 320 strains were correctly identified.

Klebsiella pneumoniae = experiment: Cell enlargement after incubation with antibiotic, K. pneumoniae; conditions: correlated to CLSI MIC≤4 μg/ml
Method: Klebsiella pneumoniae, another significant pathogen in clinical settings, was also evaluated. […] Strains were considered to be resistant when no cell enlargement was presented at either concentration.

Pseudomonas aeruginosa = experiment: Cell enlargement after one hour incubation with antibiotic, P. aeruginosa
Method: Pseudomonas aeruginosa, a common source of dangerous nosocomial infections, was also evaluated. […] Those correlated breakpoint concentrations for enlargement were 0.5 μg/ml for susceptible strains and greater than 1.0 μg/ml for resistant strains.
P. aeruginosa was evaluated for the effect of carbapenems, meropenem and imipenem, which we corroborate that induce cell enlargement in the susceptible strains of this bacterium. CLSI breakpoint concentrations of susceptibility and resistance correspond to MICs≤2-≥8 μg/ml, respectively. For cell enlargement, the new breakpoint concentrations were much lower: ≤0.2->0.5 μg/ml, for susceptibility and resistance, respectively. One hundred and thirty strains of P. aeruginosa were studied, obtaining 97 susceptible, 14 intermediate and 19 resistant to meropenem, following the standard criterion of growth affectation as indicated by MIC-CL SI. All these strains were correctly categorized when using the new breakpoints for enlargement/non-enlargement.

SMILES	MIC (Acinetobacter baumannii [1]; highly resistant strain of A. baumannii (FIG. 2, fourth row)) [µg/mL]	MIC (Acinetobacter baumannii [1]; intermediate strain of A. baumannii (FIG. 2, second row)) [µg/mL]	MIC (Acinetobacter baumannii [1]; susceptible strain of A. baumannii (FIG. 2, first row)) [µg/mL]	breakpoint concentration for cell enlargement, intermediate (Acinetobacter baumannii [2]; empirically correlated to CLSI MIC breakpoint 16 μg/ml) [µg/mL]	breakpoint concentration for cell enlargement, susceptible (Acinetobacter baumannii [2]; empirically correlated to CLSI MIC breakpoint ≤8 μg/ml) [µg/mL]	breakpoint concentration for cell enlargement, resistant (Acinetobacter baumannii [2]; empirically correlated to CLSI MIC breakpoint ≥32 μg/ml) [µg/mL]	cell enlargement (Acinetobacter baumannii [2]; highly resistant strain, 1 h incubation, tested 2, 4, 8 μg/ml)	concentration from which cell enlargement is demonstrated (Acinetobacter baumannii [2]; intermediate strain, 1 h incubation, tested 2, 4, 8 μg/ml) [µg/mL]	concentration from which cell enlargement is demonstrated (Acinetobacter baumannii [2]; resistant strain, 1 h incubation, tested 2, 4, 8 μg/ml) [µg/mL]	concentration from which cell enlargement is demonstrated (Acinetobacter baumannii [2]; susceptible strain, 1 h incubation, tested 2, 4, 8 μg/ml) [µg/mL]	breakpoint concentration for cell enlargement, susceptible strains (Klebsiella pneumoniae) [µg/mL]	cell enlargement, resistant strains (Pseudomonas aeruginosa; 1 h incubation with 0.5 μg/ml and 1 μg/ml, 5 strains)	cell enlargement, intermediate strains (Pseudomonas aeruginosa; 1 h incubation with 0.5 μg/ml and 1 μg/ml, 8 strains)	cell enlargement, susceptible strains (Pseudomonas aeruginosa; 1 h incubation with 0.5 μg/ml and 1 μg/ml, 117 strains)	breakpoint concentration for cell enlargement, susceptible strains (Pseudomonas aeruginosa; ceftazidime, correlated to CLSI MIC≤8 μg/ml) [µg/mL]	breakpoint concentration for cell enlargement, resistant strains (Pseudomonas aeruginosa; ceftazidime, correlated to CLSI MIC≥32 μg/ml)	cell enlargement, intermediate strains (Pseudomonas aeruginosa; incubation with 0.2 μg/ml and 0.5 μg/ml, 14 strains)	cell enlargement, resistant strains (Pseudomonas aeruginosa; incubation with 0.2 μg/ml and 0.5 μg/ml, 19 strains)	cell enlargement, susceptible strains (Pseudomonas aeruginosa; incubation with 0.2 μg/ml and 0.5 μg/ml, 97 strains)
CC(C)(O/N=C(\C(=O)N[C@@H]1C(=O)N2C(C(=O)[O-])=C(C[n+]3ccccc3)CS[C@H]12)c1csc(N)n1)C(=O)O [ceftazidime]	> 256	12	2.5	4	≤ 2	≥ 8	did not demonstrate enlargement at any tested concentration	8	8	2	0.5	never appeared enlarged	only after 1 μg/ml	appeared enlarged	0.5	greater than 1.0 μg/ml	–	–	–
C[C@@H](O)[C@H]1C(=O)N2C(C(=O)O)=C(S[C@@H]3CN[C@H](C(=O)N(C)C)C3)[C@H](C)[C@H]12 [meropenem]	–	–	–	–	–	–	–	–	–	–	–	–	–	–	–	–	only after 0.5 μg/ml	never appeared enlarged	appeared enlarged
